Assay results: US20110053913A1, “Methods and Therapies for Alleviating Pain” (priority 2009, published 2011)

Assays:
rats [1] = assay: Formalin test, persistent inflammatory pain model; type: in vivo, rat; details: atipemazole alone sc 20 minutes prior to 1% formalin into hind paw; dark phase; N=4; FIGS. 15A, 15B
Protocol: In a further experiment, the analgesic effect of atipemazole was examined using the formalin test, a persistent inflammatory pain model. The experiment was conducted with rats during the dark phase of the light-dark cycle. Rats were administered 1% formalin and pain behaviour was assessed by a weighted score. Atipemazole, morphine, or vehicle was injected by subcutaneous injection 20 minutes prior to formalin injection into the plantar surface of the rat hind paw. The behavior was evaluated in 5 min intervals, and the severity of the response was determined.
The formalin test is a widely used tonic model of continuous pain resulting from formalin-induced tissue injury. It is a useful model, particularly for the screening of novel compounds, since it encompasses inflammatory, neurogenic, and central mechanisms of nociception. We used 1% formalin and assessed pain behavior by a weighted score. […]
Briefly, the nociceptive behavior was assessed as follows: (1) no favouring of the injected hind paw, (2) favouring, (3) complete elevation of the hind paw from the floor, and (4) licking or flinching. The behavior was evaluated in 5 min intervals, and the severity of the response was determined by the following formula: (0×the time spent in category 1, 1×the time spent in category 2, 2×the time spent in category 3, 3×the time spent in category 4).

rats [2] = assay: Potentiation of morphine analgesia and acute morphine tolerance, tail flick and paw pressure tests; type: in vivo, rat
Protocol: (§1) Experiments were conducted using adult male Sprague-Dawley rats (Charles River, St. Constant, QC, Canada) weighing between 200-250 grams. Animals were housed individually in standard laboratory cages, maintained on a 12-hour light/dark cycle, and provided with food and water ad libitum. The surgical placement of chronic indwelling intrathecal catheters (polyethylene PE 10 tubing, 7.5 cm) into the spinal subarachnoid space was made under 4% halothane anesthesia, using the method of Yaksh and Rudy Physiol. Behav. 1976 7:1032-1036). Specifically, the anesthetized animal was placed prone in a stereotaxic frame, a small incision made at the back of the neck, and the atlanto-occipital membrane overlying the cisterna magna was exposed and punctured with a blunt needle. The catheter was inserted through the cisternal opening and slowly advanced caudally to position its tip at the lumbar enlargement. The rostral end of the catheter was exteriorized at the top of the head and the wound closed with sutures. Animals were allowed 3-4 days recovery from surgery and only those free from neurological deficits, such as the hindlimb or forelimb paralysis or gross motor dysfunction, were included in the study. All drugs were injected intrathecally as solutions dissolved in physiological saline (0.9%) through the exteriorized portion of the catheter at a volume of 10 μl followed by a 10 μl volume of 0.9% saline to flush the catheter.
(§2) The tail flick test (D'amour & Smith, J. Pharmacol. Exp. Ther. 1941 72:74-79) was used to measure the response to a thermal nociceptive stimulus. Radiant heat was applied to the distal third of the animal's tail and the response latency for tail withdrawal from the source was recorded using an analgesia meter (Owen et al., J. Pharmacol. Methods 1981 6:33-37)). The stimulus intensity was adjusted to yield baseline response latencies between 2-3 seconds. To minimize tail damage, a cutoff of 10 seconds was used as an indicator of maximum antinociception.
(§3) The paw pressure test (Loomis et al., Pharm. Biochem. 1987 26:131-139) was used to measure the response to a mechanical nociceptive stimulus. Pressure was applied to the dorsal surface of the hind paw using an inverted air-filled syringe connected to a gauge and the value at which the animal withdrew its paw was recorded. A maximum cutoff pressure of 300 mmHg was used to avoid tissue damage. Previous experience has established that there is no significant interaction between the tail flick and paw pressure tests (Loomis et al., Can. J. Physiol. Pharmacol. 1985 63:656-662).
The effects of ultra-low doses of atipemazole, yohimbine, idazoxan and mirtazapine, as well as the selective alpha-2A receptor antagonist BRL 44408, were also tested for potentiation of acute analgesic action of spinal or subcutaneous morphine. Acute opioid tolerance was induced by three serial intrathecal morphine injections (15 μg) or systemic morphine injections (2.5 mg/kg sc). Rats were administered morphine alone, a combination of morphine (15 μg intrathecally or 2.5 mg/kg sc) and an ultra low dose of atipemazole, yohimbine, idazoxan, mirtazapine, or BRL 44408. Results for atipemazole are depicted in FIGS. 2A, 2B, 11A and 11B. Results for yohimbine are depicted in FIGS. 6A and 6B. Results for idazoxan are depicted in FIGS. 10A and 10B. Results for mirtazapine are depicted in FIGS. 8A and 8B. Results for BRL 44408 are depicted in FIGS. 14A and 14B.
For the in vivo studies, tail flick and paw pressure values were converted to a maximum percentage effect (M.P.E.): M.P.E.=100×[post-drug response−baseline response]/[maximum response−baseline response]. Data represented in the figures are expressed as mean (±S.E.M.). The ED50 values were determined using a non-linear regression analysis (Prism 2, GraphPad Software Inc., San Diego, Calif., USA). […]

rats [3] = assay: Analgesic effect of ultra-low dose alpha-2 receptor antagonist administered alone, tail flick and paw pressure tests; type: in vivo, rat
Protocol: Baseline latencies were obtained every 5 minutes for 15 minutes prior to injection of either vehicle (saline 0.9%) or atipemazole and tested every 30 minutes for 3 hours. Data were converted to % maximum possible effect.
as §1, §2, §3
The analgesic effect of an ultra-low dose of an alpha-2 receptor antagonist administered alone was examined. Atipemazole was administered systemically, in three successive administrations, at 20 ng/kg or 200 ng/kg.
The analgesic effect of an ultra-low dose of an alpha-2A receptor antagonist administered alone was also examined. BRL 44408 was administered intrathecally, in a single administration, at 1.65 ng. In another study, three successive doses of BRL 44408 (1.65 ng) were administered intrathecally.
For the in vivo studies, tail flick and paw pressure values were converted to a maximum percentage effect (M.P.E.): M.P.E.=100×[post-drug response−baseline response]/[maximum response−baseline response]. Data represented in the figures are expressed as mean (±S.E.M.). The ED50 values were determined using a non-linear regression analysis (Prism 2, GraphPad Software Inc., San Diego, Calif., USA). Statistical significance (p<0.05, 0.01. or 0.001) was determined using a one-way analysis of variance followed by a Student Newman-Keuls post hoc test for multiple comparisons between groups.

rats [4] = details: morphine, cited from earlier work
spinal alpha-2 receptors = assay: Inhibition of spinal clonidine analgesia by alpha-2 receptor antagonists (tail flick / paw pressure); type: in vivo, rat; details: tail flick test, FIG. 12
Protocol: Experiments were conducted using adult male Sprague-Dawley rats (Charles River, St. Constant, QC, Canada) weighing between 200-250 grams. Animals were housed individually in standard laboratory cages, maintained on a 12-hour light/dark cycle, and provided with food and water ad libitum. The surgical placement of chronic indwelling intrathecal catheters (polyethylene PE 10 tubing, 7.5 cm) into the spinal subarachnoid space was made under 4% halothane anesthesia, using the method of Yaksh and Rudy Physiol. Behav. 1976 7:1032-1036). […]
The tail flick test (D'amour & Smith, J. Pharmacol. Exp. Ther. 1941 72:74-79) was used to measure the response to a thermal nociceptive stimulus. Radiant heat was applied to the distal third of the animal's tail and the response latency for tail withdrawal from the source was recorded using an analgesia meter (Owen et al., J. Pharmacol. Methods 1981 6:33-37)). […]
The paw pressure test (Loomis et al., Pharm. Biochem. 1987 26:131-139) was used to measure the response to a mechanical nociceptive stimulus. Pressure was applied to the dorsal surface of the hind paw using an inverted air-filled syringe connected to a gauge and the value at which the animal withdrew its paw was recorded. […]

CCC1(c2cnc[nH]2)Cc2ccccc2C1 [atipemazole]
analgesia in the formalin test (weighted pain score) (rats [1]): as effective as morphine | effect on acute tolerance to the analgesic actions of spinal morphine (rats [2]; atipemazole 0.8 ng with morphine 15 μg intrathecally, three injections at 90 minute intervals, FIGS. 2A, 2B): prevented the decline of the analgesic effect of morphine | effect on acute morphine analgesia (rats [2]; atipemazole 0.8 or 0.08 ng with morphine 15 μg intrathecally, FIGS. 3A, 3B): potentiates opioid analgesia | effect on acute tolerance to morphine (loss of response) (rats [2]; atipemazole 20 or 200 ng/kg sc with morphine 2.5 mg/kg sc, three injections at 90 minute intervals, FIGS. 11A, 11B): significantly reduced the loss of response to morphine alone | analgesic response, antagonist alone, repeated administration (rats [3]; atipemazole 0.8 ng intrathecally alone at 90 minute intervals, FIGS. 2A, 2B): incremental but weak analgesic response | analgesic effect, antagonist alone (rats [3]; atipemazole 0.8 ng intrathecally alone, FIGS. 3A, 3B): weak, albeit insignificant, analgesic effect | antinociceptive effect in the tail flick test, dark phase (rats [3]; atipemazole 200 ng/kg sc, rats on reverse light/dark cycle, administered during the dark phase, tested every 30 minutes for 3 hours): did not produce a significant antinociceptive effect | analgesic response in the tail flick test, antagonist alone (rats [3]; atipemazole 20 and 200 ng/kg sc alone at 90 minute intervals, tail flick, FIG. 11A): delayed analgesic response

COC(=O)[C@@H]1[C@H]2C[C@H]3c4[nH]c5ccccc5c4CCN3C[C@@H]2CC[C@@H]1O [yohimbine]
analgesic response, antagonist alone, repeated administration (rats [3]; yohimbine 0.024 ng intrathecally alone at 90 minute intervals, FIGS. 6A, 6B): no significant analgesic response

c1ccc2c(c1)OCC(C1=NCCN1)O2 (stereo not drawn) [idazoxan]
analgesic response, antagonist alone, repeated administration (rats [3]; idazoxan intrathecally alone, ultra-low dose, repeated): no significant analgesic response

CN1CC[C@]23c4c5ccc(O)c4O[C@H]2[C@@H](O)C=C[C@H]3[C@H]1C5 [morphine]
ED50 dose during the dark phase (rats [4]; dark phase of light-dark cycle): 0.25 mg/kg | ED50 dose during the light phase (rats [4]; light phase of light-dark cycle): 5 mg/kg | potency in the dark phase compared to the light phase (rats [4]; nociceptive testing): 10 fold | analgesic response to repeated morphine (rats [2]; morphine 2.5 mg/kg sc alone, three injections at 90 minute intervals, both tests, FIGS. 11A, 11B): rapid decay of the analgesic response | decline of the analgesic effect of morphine observed after the first injection (rats [2]; three successive intrathecal doses of morphine 15 μg at 90 minute intervals, end of the 240 minute test period, FIGS. 2A, 2B): ~80%

CC1c2ccccc2CN1CC1=NCCN1.O=C(O)/C=C\C(=O)O (stereo not drawn) [BRL 44408, 2-[2H-(1-Methyl-1,3-dihydroisoindole)methyl]-4,5-dihydroimidazole maleate]
effect on morphine analgesia after a single administration (rats [2]; BRL 44408 1.65 ng with morphine 15 μg intrathecally once, relative to morphine alone, FIGS. 13A, 13B): significantly increased morphine analgesia | effect on analgesic action of morphine in the acute tolerance study (rats [2]; BRL 44408 1.65 ng with morphine intrathecally, three injections at 90 minute intervals, FIGS. 14A, 14B): increased the acute analgesic action of morphine | analgesia after a single administration, antagonist alone (rats [3]; BRL 44408 1.65 ng intrathecally alone, single administration, relative to saline, FIGS. 13A, 13B): significant analgesia, relative to saline administration, after 60 minutes | course and duration of analgesia after a single administration, antagonist alone (rats [3]; BRL 44408 1.65 ng intrathecally alone, single administration, FIGS. 13A, 13B): increased and persisted for the duration of the study (180 minutes) | antagonism of clonidine analgesia (spinal alpha-2 receptors; BRL 44408 3.3 μg with clonidine 13.3 μg intrathecally): did not antagonize clonidine | antagonism of clonidine analgesia (spinal alpha-2 receptors; BRL 44408 16.5 μg with clonidine 13.3 μg intrathecally): antagonized clonidine analgesia
